Experimental data reported in ChEMBL document CHEMBL1201862, “PubChem BioAssay data set” (2004).
Calls of active or inactive are those of the source.

Assays:
Cytochrome P450 1A2 = target: T1, Cytochrome P450 1A2 (Homo sapiens, UniProt P05177);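 further: PubChem cytochrome P450 panel assay, CYP1A2 panel member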
T1 sequence (P05177 whole entry): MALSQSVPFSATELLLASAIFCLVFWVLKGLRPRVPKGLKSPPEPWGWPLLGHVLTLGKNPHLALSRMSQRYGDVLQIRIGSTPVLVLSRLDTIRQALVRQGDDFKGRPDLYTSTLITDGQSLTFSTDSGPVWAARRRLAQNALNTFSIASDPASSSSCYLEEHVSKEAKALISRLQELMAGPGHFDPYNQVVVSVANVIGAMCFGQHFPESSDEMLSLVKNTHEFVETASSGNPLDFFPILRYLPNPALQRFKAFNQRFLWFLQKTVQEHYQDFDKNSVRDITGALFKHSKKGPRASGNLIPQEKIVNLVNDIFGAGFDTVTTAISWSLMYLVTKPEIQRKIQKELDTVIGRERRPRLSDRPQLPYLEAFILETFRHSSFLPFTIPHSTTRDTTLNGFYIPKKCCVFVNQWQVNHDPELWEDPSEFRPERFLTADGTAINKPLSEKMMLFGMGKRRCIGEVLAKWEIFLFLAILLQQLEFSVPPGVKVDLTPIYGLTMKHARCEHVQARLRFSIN

Cytochrome P450 3A4 = Cytochrome P450 3A4 (Homo sapiens, UniProt P08684);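 further: CYP3A4 tested as one member of a cytochrome P450 panel screen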
[1] = target: Peroxisome proliferator-activated receptor gamma/Nuclear receptor corepressor 2 (Homo sapiens, UniProt P37231+Q9Y618); experiment: Counterscreen for NR2E3 inverse agonists: TR-FRET-based biochemical high throughput dose response assay to identify inverse agonists of the interaction between peroxisome proliferator-activated receptor gamma (PPARg) and nuclear receptor co-repressor 2 (NCOR2).; format: functional
[2] = target: Photoreceptor-specific nuclear receptor (Homo sapiens, UniProt Q9Y5X4); experiment: NR2E3 inverse agonists, dose response, biochemical, TR-FRET (AID 463256); format: functional
[3] = target: Sphingosine 1-phosphate receptor 2 (Homo sapiens, UniProt O95136); experiment: Dose Response Cell Based Assay for Antagonists of the S1P2 Receptor. [Related pubchem assays: 856, 736 ]; format: functional
[4] = target: T2, Calpain-2 catalytic subunit (Sus scrofa, UniProt P43367); experiment: pig calpain II inhibitor potency, dose response, biochemical, fluorogenic peptide substrate (AID 1420); format: functional
T2 sequence (P43367 whole entry): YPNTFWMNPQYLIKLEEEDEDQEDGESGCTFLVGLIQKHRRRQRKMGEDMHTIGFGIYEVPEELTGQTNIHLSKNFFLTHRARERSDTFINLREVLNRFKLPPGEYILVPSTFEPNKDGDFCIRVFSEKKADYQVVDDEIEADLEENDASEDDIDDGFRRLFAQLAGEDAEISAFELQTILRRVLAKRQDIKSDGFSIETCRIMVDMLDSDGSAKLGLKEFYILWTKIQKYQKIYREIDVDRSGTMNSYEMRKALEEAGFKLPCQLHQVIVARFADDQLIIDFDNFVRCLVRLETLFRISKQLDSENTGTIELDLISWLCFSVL

[5] = target: Diphosphomevalonate decarboxylase (Streptococcus pneumoniae serotype 2 (strain D39 / NCTC 7466), UniProt Q9FD53); experiment: S. pneumoniae DPM-DC inhibition retest, confirmation, biochemical, cuvette format, coupled NADH fluorescence (AID 1028); format: functional
Fibrinogen beta chain [6] = target: T3, Fibrinogen beta chain (Homo sapiens, UniProt P02675); experiment: Fluorescence polarization-based biochemical high throughput dose response assay to identify inhibitors that disrupt the binding of a cyclic peptide (Tn7) to the fibrin proteolytic product D-Dimer and fragment E complex [DD(E )].
Fibrinogen beta chain [7] = target: T3, Fibrinogen beta chain; experiment: Fluorescence polarization-based biochemical high throughput dose response assay to identify inhibitors that disrupt the binding of a cyclic peptide (Tn6) to the fibrin proteolytic product D-Dimer and fragment E complex [DD(E )].
[8] = Luminescence-based cell-based high throughput dose response assay to identify activators of the DAF-12 from the parasite S. stercoralis (ssDAF-12).; format: functional
[9] = target: T4, Oxysterols receptor LXR-beta (Homo sapiens, UniProt P55055); experiment: LXR agonists, Gal4 luciferase reporter, dose response, counter-screen for ssDAF-12 agonist project, cell-based, luminescence, HEK293, S. stercoralis campaign (AID 720737); format: functional; settings: read-out: IC50 (the source's name)
T4 sequence (P55055 whole entry): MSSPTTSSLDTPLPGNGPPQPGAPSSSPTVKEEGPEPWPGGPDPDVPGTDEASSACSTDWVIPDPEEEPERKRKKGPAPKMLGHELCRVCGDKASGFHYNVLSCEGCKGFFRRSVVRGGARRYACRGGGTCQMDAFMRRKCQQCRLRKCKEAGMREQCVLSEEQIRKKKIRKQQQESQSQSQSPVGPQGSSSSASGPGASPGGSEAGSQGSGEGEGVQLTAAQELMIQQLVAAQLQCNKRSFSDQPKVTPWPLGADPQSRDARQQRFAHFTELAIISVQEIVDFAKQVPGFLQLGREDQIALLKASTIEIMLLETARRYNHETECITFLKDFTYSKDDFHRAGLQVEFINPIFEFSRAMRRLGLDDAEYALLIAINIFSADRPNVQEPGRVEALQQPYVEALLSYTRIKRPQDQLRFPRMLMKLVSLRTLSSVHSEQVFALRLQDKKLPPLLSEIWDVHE

[10] = T. cruzi growth inhibition in host cells, dose response, cell-based, plate reader, dry powder, set 2 (AID 652275); format: functional
[11] = T. cruzi intracellular amastigote growth inhibition, dose response, imaging, CA-I/72 strain, bovine embryo skeletal muscle, dry powder (AID 651885); format: functional, cell-based
[12] = growth inhibition of intracellular T. cruzi, dose response, cell-based, plate reader, dry powder samples (AID 651845); format: functional
[13] = HCT116 cell viability decrease, GSK3B pretreatment – CellTiter-Glo, IC50, dose response (AID 1117339); format: functional; settings: HCT-116
[14] = HeLa 4N DNA content increase, dose response, cell-based, IC50 (AID 1117351); format: functional
[15] = Concentration-dependent survival of SW480 colon cancer line, luminescence detection with CellTiter-Glo, half-maximal inhibitory concentration (AID 1117338); format: functional
[16] = RKO cell viability reduction, dose response, CellTiter-Glo luminescence (AID 1117322); format: functional
[17] = CellTiter-Glo luminescent dose response of DLD-1 viability loss (AID 1117352); format: functional
[18] = cytotoxicity toward Colo320 cells – cell-based, CellTiter-Glo luminescence, IC50, dose response (AID 1117334); format: functional; settings: COLO 320
[19] = Late-stage results from the probe development effort to identify antagonists of arginine vasopressin receptor 1a (AVPR1a): fluorescence-based cell-based dose response OXTR inhibition counterscreen assay.; format: functional
[20] = Late-stage results from the probe development effort to identify antagonists of arginine vasopressin receptor 1a (AVPR1a): fluorescence-based cell-based dose response AVPR1a inhibition assay.; format: functional
Vasopressin V2 receptor = Vasopressin V2 receptor (Homo sapiens, UniProt P30518); experiment: Late-stage results from the probe development effort to identify antagonists of arginine vasopressin receptor 1a (AVPR1a): fluorescence-based cell-based dose response AVPR2 inhibition counterscreen assay.; format: functional
Vasopressin V1b receptor = Vasopressin V1b receptor (Homo sapiens, UniProt P47901); experiment: Late-stage results from the probe development effort to identify antagonists of arginine vasopressin receptor 1a (AVPR1a): fluorescence-based cell-based dose response AVPR1b inhibition counterscreen assay.; format: functional
[21] = SNU-C1 cell viability reduction, dose response, CellTiter-Glo luminescence (AID 1117323); format: functional, cell-based
[22] = cytotoxicity toward HT-29 cells – cell-based, CellTiter-Glo luminescence, IC50, dose response (AID 1117330); format: functional
[23] = cytotoxicity toward HCT116 cells – cell-based, CellTiter-Glo luminescence, IC50, dose response (AID 1117332); format: functional; settings: HCT-116
[24] = A549 cell cytotoxicity, dose response, cytotoxicity control, 24 h, CellTiter-Glo luminescence, cherry-picks (AID 1053115); format: functional, cell-based; settings: A549, 24 h
[25] = cytotoxicity toward NIH3T3 fibroblasts, dose response, counter-screen, cell-based, ATP luminescence, mouse fibroblasts (AID 2010); format: functional;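 further: cells exposed to compound for about 90 hours before reading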
[26] = THP-1 cell cytotoxicity, dose response, cytotoxicity control for Vif-APOBEC3G degradation inhibitor project, THP-1 cells (AID 1117359); format: functional; settings: Human immunodeficiency virus 1, THP-1
[27] = insulin promoter down-regulators in MIN6 cells, imaging, high-content screening, mouse beta cells (AID 1628); format: functional
Beta-galactosidase = Beta-galactosidase (Escherichia coli, UniProt Q8VNN2); experiment: Dose response counterscreen for EBI2 assay utilizing the enzyme, b-galactosidase.; format: functional
[28] = Vero cell cytotoxicity, dose response, cytotoxicity control for Vif-APOBEC3G degradation inhibitor project, Vero cells (AID 1117358); format: functional; settings: Human immunodeficiency virus 1, Vero
[29] = inhibitors of intracellular T. cruzi replication, confirmation, NIH3T3 host cells, beta-gal luminescence (AID 2044); format: functional, cell-based;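 further: intracellular parasites grown in NIH/3T3 mouse fibroblasts as host cells; luminescent beta-galactosidase reporter signal from transgenic T. cruzi replicating inside host cells; inhibitors lower the luminescence signal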
[30] = cytotoxicity in MIN6 insulinoma cells, dose response, cytotoxicity control, cell-based, mouse insulinoma (AID 2122); format: functional;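 further: confirmatory high-throughput counterscreen run to flag cytotoxic compounds; mouse MIN-6 beta cells carrying an insulin promoter eGFP reporter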
[31] = inhibitors of Vif binding to APOBEC3G peptide, primary screen, biochemical, TR-FRET, GST-Vif 1-94, biotin-A3G peptide, dose response retest (AID 1117319); format: functional;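 further: TR-FRET signal of purified GST-Vif binding a biotinylated A3G peptide; inhibitors lower the FRET signal by blocking Vif and A3G binding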
[32] = target: T5, Rac GTPase-activating protein 1 (Homo sapiens, UniProt Q9H0H5); experiment: MgcRacGAP GTPase-activating activity inhibitors, confirmation, biochemical, ADP Hunter fluorescence, primary and confirmatory (AID 624330); format: functional
T5 sequence (Q9H0H5 whole entry): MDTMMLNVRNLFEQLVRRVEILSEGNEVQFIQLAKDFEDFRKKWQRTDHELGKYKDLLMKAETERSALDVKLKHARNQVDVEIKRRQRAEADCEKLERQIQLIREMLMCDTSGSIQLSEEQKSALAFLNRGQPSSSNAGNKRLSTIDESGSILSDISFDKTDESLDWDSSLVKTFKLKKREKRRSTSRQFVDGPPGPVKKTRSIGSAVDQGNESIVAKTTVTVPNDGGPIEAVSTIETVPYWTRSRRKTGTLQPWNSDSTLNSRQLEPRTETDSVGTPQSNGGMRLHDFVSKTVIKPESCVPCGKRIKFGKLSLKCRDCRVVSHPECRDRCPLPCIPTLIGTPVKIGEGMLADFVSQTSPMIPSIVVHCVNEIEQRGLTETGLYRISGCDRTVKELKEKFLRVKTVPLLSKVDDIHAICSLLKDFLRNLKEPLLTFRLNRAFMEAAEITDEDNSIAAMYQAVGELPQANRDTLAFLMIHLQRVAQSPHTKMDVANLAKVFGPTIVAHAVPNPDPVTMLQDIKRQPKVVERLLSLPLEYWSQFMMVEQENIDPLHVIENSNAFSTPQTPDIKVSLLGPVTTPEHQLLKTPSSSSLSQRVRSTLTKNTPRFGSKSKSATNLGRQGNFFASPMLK

[33] = target: T4, Oxysterols receptor LXR-beta; format: functional, cell-based
[34] = target: Dual specificity tyrosine-phosphorylation-regulated kinase 1A (Rattus norvegicus, UniProt Q63470); format: biochemical, Homo sapiens
[35] = target: G-protein coupled receptor 183 (Homo sapiens, UniProt P32249); experiment: SAR confirmation of small molecule antagonists of the EBI2 receptor via a luminescent beta-arrestin assa.; format: functional

T3 sequence (P02675 whole entry, the tested form may be a part): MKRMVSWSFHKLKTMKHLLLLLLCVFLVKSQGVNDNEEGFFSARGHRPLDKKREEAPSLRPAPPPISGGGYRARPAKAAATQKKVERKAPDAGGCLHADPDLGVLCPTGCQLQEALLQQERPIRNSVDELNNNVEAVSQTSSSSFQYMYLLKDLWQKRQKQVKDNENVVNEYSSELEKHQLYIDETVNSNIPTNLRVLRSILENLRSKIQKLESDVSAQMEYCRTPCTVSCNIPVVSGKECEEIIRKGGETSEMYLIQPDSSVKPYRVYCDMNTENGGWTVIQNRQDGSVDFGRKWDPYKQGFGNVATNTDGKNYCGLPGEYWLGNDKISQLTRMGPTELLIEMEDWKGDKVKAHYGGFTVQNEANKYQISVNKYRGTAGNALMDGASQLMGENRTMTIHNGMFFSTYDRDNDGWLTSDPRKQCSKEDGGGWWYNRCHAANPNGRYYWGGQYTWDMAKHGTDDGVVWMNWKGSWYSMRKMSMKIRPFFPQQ
Sequence of Photoreceptor-specific nuclear receptor (Q9Y5X4 whole entry): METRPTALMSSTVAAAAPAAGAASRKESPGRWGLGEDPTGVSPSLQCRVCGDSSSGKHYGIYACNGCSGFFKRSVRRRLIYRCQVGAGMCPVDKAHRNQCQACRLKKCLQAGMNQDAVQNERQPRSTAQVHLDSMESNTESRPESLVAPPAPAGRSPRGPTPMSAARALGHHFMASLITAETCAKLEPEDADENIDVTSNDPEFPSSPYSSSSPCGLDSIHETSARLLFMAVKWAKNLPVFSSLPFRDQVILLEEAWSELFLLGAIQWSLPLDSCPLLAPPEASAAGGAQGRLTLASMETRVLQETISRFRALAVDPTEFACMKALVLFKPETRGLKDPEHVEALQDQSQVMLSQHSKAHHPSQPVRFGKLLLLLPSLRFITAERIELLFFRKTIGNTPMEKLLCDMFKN
Sequence of Vasopressin V1b receptor (P47901 whole entry): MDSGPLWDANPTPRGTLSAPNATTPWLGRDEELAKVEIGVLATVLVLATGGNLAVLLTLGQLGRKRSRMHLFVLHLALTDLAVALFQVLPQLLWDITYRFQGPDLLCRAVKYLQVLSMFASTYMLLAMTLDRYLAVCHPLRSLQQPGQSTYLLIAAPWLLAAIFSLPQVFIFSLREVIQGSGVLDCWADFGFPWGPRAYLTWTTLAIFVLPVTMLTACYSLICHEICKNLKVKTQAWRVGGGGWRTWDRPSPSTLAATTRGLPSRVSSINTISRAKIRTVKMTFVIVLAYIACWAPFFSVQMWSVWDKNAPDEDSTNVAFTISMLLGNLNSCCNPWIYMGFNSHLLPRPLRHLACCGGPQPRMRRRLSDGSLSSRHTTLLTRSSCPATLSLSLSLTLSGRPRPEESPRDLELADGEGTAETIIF
Sequence of Diphosphomevalonate decarboxylase (Q9FD53 whole entry, the tested form may be a part): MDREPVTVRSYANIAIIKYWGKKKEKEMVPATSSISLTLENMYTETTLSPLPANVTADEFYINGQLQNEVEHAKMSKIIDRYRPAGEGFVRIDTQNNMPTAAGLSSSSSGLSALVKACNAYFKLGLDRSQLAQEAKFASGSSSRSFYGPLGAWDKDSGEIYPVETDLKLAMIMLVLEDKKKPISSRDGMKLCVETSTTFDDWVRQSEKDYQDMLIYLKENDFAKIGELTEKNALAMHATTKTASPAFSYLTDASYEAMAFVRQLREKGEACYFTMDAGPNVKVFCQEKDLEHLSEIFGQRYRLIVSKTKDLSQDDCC
Sequence of Peroxisome proliferator-activated receptor gamma/Nuclear receptor corepressor 2 (P37231 whole entry): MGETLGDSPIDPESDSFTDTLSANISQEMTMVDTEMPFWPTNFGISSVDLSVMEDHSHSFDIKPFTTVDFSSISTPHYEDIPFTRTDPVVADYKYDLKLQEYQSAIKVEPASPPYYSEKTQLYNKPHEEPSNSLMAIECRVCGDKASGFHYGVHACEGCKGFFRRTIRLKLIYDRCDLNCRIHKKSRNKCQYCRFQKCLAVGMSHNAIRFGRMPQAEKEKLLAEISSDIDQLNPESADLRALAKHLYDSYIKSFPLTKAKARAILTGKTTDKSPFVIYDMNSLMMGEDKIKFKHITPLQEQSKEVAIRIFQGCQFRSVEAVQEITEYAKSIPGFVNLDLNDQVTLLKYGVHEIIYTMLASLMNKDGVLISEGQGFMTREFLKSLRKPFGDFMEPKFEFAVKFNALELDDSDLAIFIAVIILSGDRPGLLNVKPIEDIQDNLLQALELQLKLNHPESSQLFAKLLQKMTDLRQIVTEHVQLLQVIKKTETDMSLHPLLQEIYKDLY
Sequence of Peroxisome proliferator-activated receptor gamma/Nuclear receptor corepressor 2 (Q9Y618 whole entry): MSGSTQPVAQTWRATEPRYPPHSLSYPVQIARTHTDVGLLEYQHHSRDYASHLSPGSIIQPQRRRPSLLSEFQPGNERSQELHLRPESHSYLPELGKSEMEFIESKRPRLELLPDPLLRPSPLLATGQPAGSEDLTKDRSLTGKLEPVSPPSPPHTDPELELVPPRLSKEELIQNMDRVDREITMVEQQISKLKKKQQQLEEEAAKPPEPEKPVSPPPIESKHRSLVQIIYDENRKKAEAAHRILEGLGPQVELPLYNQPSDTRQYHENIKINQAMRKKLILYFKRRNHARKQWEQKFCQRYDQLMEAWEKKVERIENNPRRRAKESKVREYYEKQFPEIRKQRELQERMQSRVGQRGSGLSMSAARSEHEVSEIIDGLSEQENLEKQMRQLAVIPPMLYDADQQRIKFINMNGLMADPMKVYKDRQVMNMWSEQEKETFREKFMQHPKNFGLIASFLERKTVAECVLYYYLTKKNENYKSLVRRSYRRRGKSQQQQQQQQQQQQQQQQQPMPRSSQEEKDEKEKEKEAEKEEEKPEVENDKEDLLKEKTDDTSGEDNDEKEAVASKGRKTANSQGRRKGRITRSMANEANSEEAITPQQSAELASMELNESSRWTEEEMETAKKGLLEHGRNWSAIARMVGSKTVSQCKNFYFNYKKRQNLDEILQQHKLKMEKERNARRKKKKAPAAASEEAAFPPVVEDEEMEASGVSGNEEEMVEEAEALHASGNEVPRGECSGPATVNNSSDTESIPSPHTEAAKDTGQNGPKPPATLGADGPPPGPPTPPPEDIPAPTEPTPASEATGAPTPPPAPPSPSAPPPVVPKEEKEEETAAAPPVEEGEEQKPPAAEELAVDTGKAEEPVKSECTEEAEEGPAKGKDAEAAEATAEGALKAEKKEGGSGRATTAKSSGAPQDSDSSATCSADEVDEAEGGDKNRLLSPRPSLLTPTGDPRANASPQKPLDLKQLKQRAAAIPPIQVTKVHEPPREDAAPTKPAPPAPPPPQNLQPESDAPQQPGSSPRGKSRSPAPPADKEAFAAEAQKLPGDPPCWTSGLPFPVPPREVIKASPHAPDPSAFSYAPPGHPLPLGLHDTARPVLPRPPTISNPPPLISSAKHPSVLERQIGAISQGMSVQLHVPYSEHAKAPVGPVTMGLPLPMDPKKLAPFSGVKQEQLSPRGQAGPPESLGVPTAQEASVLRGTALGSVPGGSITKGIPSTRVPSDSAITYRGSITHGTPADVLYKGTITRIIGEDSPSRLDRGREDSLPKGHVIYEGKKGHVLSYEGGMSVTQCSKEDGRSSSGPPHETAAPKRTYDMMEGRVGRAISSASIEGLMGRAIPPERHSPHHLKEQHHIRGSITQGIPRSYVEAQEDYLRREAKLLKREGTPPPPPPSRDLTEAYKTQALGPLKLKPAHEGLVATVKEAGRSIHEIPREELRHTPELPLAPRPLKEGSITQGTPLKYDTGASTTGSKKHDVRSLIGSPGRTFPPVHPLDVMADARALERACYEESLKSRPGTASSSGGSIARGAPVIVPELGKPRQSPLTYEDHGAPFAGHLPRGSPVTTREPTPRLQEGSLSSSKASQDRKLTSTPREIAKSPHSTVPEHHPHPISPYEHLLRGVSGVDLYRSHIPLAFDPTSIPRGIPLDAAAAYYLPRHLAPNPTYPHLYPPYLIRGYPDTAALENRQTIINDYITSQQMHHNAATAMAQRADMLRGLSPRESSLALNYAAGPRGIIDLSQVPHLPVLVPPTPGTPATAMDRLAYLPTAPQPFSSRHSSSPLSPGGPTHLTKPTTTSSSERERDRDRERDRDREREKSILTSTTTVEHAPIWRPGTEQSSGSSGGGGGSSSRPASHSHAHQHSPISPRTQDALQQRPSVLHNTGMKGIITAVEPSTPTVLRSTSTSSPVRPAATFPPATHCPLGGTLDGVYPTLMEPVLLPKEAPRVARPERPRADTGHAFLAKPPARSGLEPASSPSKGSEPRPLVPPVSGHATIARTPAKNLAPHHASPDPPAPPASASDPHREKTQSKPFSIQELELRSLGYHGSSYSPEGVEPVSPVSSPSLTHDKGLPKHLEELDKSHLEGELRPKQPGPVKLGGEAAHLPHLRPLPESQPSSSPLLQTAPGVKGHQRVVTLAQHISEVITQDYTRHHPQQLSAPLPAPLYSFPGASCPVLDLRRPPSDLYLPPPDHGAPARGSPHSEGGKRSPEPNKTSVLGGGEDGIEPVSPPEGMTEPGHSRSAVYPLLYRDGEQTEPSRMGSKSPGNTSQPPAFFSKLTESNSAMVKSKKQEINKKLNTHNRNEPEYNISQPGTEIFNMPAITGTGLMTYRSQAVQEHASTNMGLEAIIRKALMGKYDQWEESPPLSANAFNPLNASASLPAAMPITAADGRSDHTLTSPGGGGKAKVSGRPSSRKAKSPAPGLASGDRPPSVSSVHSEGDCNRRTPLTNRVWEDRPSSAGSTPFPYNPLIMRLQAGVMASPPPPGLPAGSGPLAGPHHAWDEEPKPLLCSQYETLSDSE
Sequence of Sphingosine 1-phosphate receptor 2 (O95136 whole entry): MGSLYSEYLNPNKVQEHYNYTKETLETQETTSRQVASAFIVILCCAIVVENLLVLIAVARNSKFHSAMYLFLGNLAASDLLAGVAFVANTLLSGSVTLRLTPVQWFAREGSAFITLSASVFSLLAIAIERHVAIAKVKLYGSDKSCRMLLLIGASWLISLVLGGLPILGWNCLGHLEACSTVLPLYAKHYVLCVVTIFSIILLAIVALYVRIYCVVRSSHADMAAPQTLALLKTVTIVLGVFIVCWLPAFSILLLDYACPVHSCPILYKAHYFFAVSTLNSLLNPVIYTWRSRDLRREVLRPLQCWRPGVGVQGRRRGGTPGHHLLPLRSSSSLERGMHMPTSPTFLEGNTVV

COc1ccc(N2C(=O)c3ccccc3NC2c2ccc(OC)c(CSc3ccccn3)c2)cc1 (stereo unspecified)
AC50 (Cytochrome P450 1A2): 15.8 µM (inconclusive)
AC50 (Cytochrome P450 3A4): 1 µM (inconclusive)
IC50 [1]: 7.42 µM (active)
IC50 [2]: 5.92 µM (active)

COC(=O)c1sc2cc(C(F)(F)F)cnc2c1-c1cccnc1
IC50 [3]: > 30 µM (not active)
IC50 [4]: 14.3 µM (not active)

CCN(CC)C(=O)c1ccc(-n2sc3ccccc3c2=O)cc1
IC50 [5]: 19.2 µM (active)

CCOC(=O)N1CCN(Cc2nc(-c3ccc(C)cc3)no2)CC1
IC50 (Fibrinogen beta chain [6]): > 27.8 µM (inactive)
IC50 (Fibrinogen beta chain [7]): > 83.3 µM (inactive)

Oc1ccc(N=Nc2ccccc2)o1
IC50 [8]: > 67.6 µM (inactive)
EC50 [9]: > 67.6 µM (inactive)

CC(C)N1C[C@H](C)[C@@H](CN(C)Cc2ccc(Oc3ccccc3)cc2)Oc2c(NC(=O)c3ccncc3)cccc2C1=O
AC50 [10]: 0.00111 µM (active)
IC50 [11]: 0.00163 µM (active)
AC50 [12]: 0.00119 µM (active)

COc1cccc2c1C(=O)c1c(O)c3c(c(O)c1C2=O)C[C@@](O)(C(=O)CO)CC3OC1CC(N2CCOC(OC)C2)C(O)C(C)O1 (stereo partly specified)
IC50 [13]: 0.001 µM (active)
IC50 [14]: > 10 µM (inactive)
IC50 [15]: 0.001 µM (active)
IC50 [16]: 0.001 µM (active)
IC50 [17]: 0.001 µM (active)
IC50 [18]: 0.001 µM (active)

O=C(C1CCN(c2ncccc2F)CC1)N(CC1CC1)c1ccc(Cl)cc1
IC50 [19]: 3.6 µM (active)
IC50 [20]: 0.015 µM (active)
IC50 (Vasopressin V2 receptor): 19 µM (inactive)
IC50 (Vasopressin V1b receptor): 11.5 µM (inactive)

CC(CC=O)CCCC(C)(C)O (stereo unspecified)
IC50 [13]: > 20 µM (inactive)
IC50 [15]: > 20 µM (inactive)
IC50 [16]: > 20 µM (inactive)
IC50 [17]: > 20 µM (inactive)
IC50 [21]: > 20 µM (inactive)
IC50 [22]: > 20 µM (inactive)
IC50 [23]: > 20 µM (inactive)
IC50 [18]: > 20 µM (inactive)

OC[C@@H]1Nc2ccc(-c3cccc(F)c3)cc2[C@H]2[C@@H]1CCN2Cc1ccc(F)cc1
AC50 [24]: 51.5 µM (active)

Cc1cccc(S(=O)(=O)c2c(N)n(/N=C/c3ccco3)c3nc4ccccc4nc23)c1
EC50 [25]: 12 µM (active)
CC50 [26]: > 40 µM (active)
IC50 [27]: 6.02 µM (active)
IC50 (Beta-galactosidase): > 80 µM (inactive)
CC50 [28]: > 40 µM (active)
EC50 [29]: 2.12 µM (active)
IC50 [30]: 9.21 µM (active)
IC50 [31]: > 55.3 µM (active)

CSc1nc(/C=C2\C=Nc3ccccc32)c(O)[nH]1
IC50 [32]: 35.9 µM (active)
EC50 (cells): > 67.6 µM (inactive)
EC50 [33]: > 67.6 µM (inactive)
AC50 [34]: 7.28 µM (active)

CCOc1ccc(/C=C/C(=O)N2CCN(S(=O)(=O)c3ccc(Br)cc3)CC2)cc1
IC50 [35]: 0.0143 µM (active)
